The text below walks through data of BindingDB's records for doi:10.7270/Q2QF8R8B (Pcmd, 2008).

The target in the test is T1, Cathepsin G (Homo sapiens, UniProt P08311).
T1 sequence (P08311 whole entry): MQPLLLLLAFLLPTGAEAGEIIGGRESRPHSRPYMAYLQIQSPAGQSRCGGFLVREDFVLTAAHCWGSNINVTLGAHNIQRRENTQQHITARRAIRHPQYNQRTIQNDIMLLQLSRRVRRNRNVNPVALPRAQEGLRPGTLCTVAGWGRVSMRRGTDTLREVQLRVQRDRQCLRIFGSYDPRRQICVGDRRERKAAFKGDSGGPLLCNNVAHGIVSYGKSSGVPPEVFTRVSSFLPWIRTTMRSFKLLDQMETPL
The experiment in a line: IC50 of CTSG protease blockers – biochemical, confirmation, dose response (AID 832).

Structures are written as SMILES. pIC50: −log10 of the molar value.

On to `COc1ccc(OC)c(-c2cc(C(=O)Nc3c(C)nn(Cc4ccccc4)c3C)no2)c1` [5-(2,5-dimethoxyphenyl)-N-[3,5-dimethyl-1-(phenylmethyl)-4-pyrazolyl]-3-isoxazolecarboxamide], for which the pIC50 – broadly, the IC50 on a negative log10 scale, so that one unit is a factor of ten – is 4.48.

On to `COc1ccc(C2C(C(=O)c3cccs3)C(=O)C(=O)N2c2nncs2)cc1` (centres undefined), for which the pIC50 was under 4.30.

As to `Cc1ccccc1CS(=O)(=O)c1nnc([C@H](CC(C)C)NC(=O)OC(C)(C)C)o1` [SMR000044673], the pIC50 is 4.65.

Molecule `Cc1ccc(S(=O)(=O)n2nc(OC(=O)c3cccs3)cc2N)cc1` showed a pIC50 of 5.09.

Molecule `O=C(c1ccc2c(c1)OCO2)n1nnc2ccccc21` showed a pIC50 of 6.02.

In turn, `CCC(=O)Nc1cccc(-c2nc3ccccc3c(=O)o2)c1` [MLS000090237] gave a pIC50 of 5.46.

The molecule `CC[C@@H](C)[C@H](NC(=O)OC(C)(C)C)c1nnc(S(=O)(=O)Cc2cc(C)ccc2C)o1` [MLS000042033] showed a pIC50 of 4.69.

As to `COc1ccc(C(=O)n2nc(-c3ccco3)nc2SC)cc1OC` [(3,4-dimethoxyphenyl)-[3-(2-furanyl)-5-(methylthio)-1,2,4-triazol-1-yl]methanone], the pIC50 was 4.66.

In the case of `O=C1CCCC(=O)C1=CNCCc1ccccc1` [MLS000108318], the pIC50 is under 4.30.

On to `COc1ccc2c(c1)CCc1c(C(=O)Nc3cc(C)n(Cc4ccc(Cl)cc4)n3)noc1-2` [MLS000087458], for which the pIC50 is 5.83.

Consider `COc1ccc2c(c1)CCc1c(C(=O)Nc3c(C)n(C)n(-c4ccccc4)c3=O)noc1-2` [MLS000087455], for which the pIC50 is 5.33.

`COc1ccccc1-c1cc(C(=O)NCc2ccc(Cl)cc2)no1` [MLS000087096]: the pIC50 was 4.95.

Regarding `Cn1cnnc1SCc1ccc(C(=O)n2ncc(C#N)c2N)cc1` [5-amino-1-[4-[(4-methyl-1,2,4-triazol-3-yl)sulfanylmethyl]benzoyl]pyrazole-4-carbonitrile], the pIC50 is 5.41.

On to `O=C(c1noc2c1CCc1ccccc1-2)N1CCCc2ccccc21` [3-(3,4-dihydroquinolin-1(2H)-ylcarbonyl)-4,5-dihydronaphtho[2,1-d]isoxazole], for which the pIC50 is 4.32.

In turn, `CCCNC(=O)c1noc2c1CCc1ccccc1-2` [MLS000116420] gave a pIC50 of 5.59.

As to `Cc1cc(OC(=O)c2ccccc2)n(CCC#N)n1` [[2-(2-cyanoethyl)-5-methyl-pyrazol-3-yl] benzoate], the pIC50 was 5.65.

In turn, `O=C(c1noc2c1CCc1ccccc1-2)N1CCc2ccccc2C1` [3-(3,4-dihydroisoquinolin-2(1H)-ylcarbonyl)-4,5-dihydronaphtho[2,1-d]isoxazole] had a pIC50 of 4.71.

Take `Cc1nc2scc(-c3cccs3)c2c(=O)o1` [2-methyl-5-(2-thienyl)thieno[2,3-d][1,3]oxazin-4-one]: the pIC50 is under 4.30.

`Cc1nn(C(=O)c2ccccc2)c2c1C(=O)CC(C)(C)C2` [SMR000069174] showed a pIC50 of 4.97.

Molecule `COc1ccc2c(c1)CCc1c(C(=O)NCCN3CCOCC3)noc1-2` [7-methoxy-N-(2-morpholin-4-ylethyl)-4,5-dihydrobenzo[g][1,2]benzoxazole-3-carboxamide] gave a pIC50 of 5.23.

In turn, `COc1ccc(C(=O)n2nc(-c3ccccc3)nc2N)cc1OC` [MLS000099650] showed a pIC50 of 5.35.

Turning to `CCOC(=O)c1c(C)n(C(=O)c2ccco2)c(=O)n1C(=O)c1ccco1`, the pIC50 is 4.92.

The molecule `O=c1oc(-c2ccco2)nc2ccccc12` [2-Furan-2-yl-benzo[d][1,3]oxazin-4-one] had a negative logarithm of the IC50 (pIC50) of 6.10.

In turn, `Cc1ccc(C(=O)n2cnnc2N)cc1C` [4-(3,4-dimethylbenzoyl)-4H-1,2,4-triazol-3-amine] had a pIC50 of 5.80.

As for `Cc1cnc(C(=O)Nc2ccccc2-c2ccc(C)o2)cn1` [5-Methyl-pyrazine-2-carboxylic acid [2-(5-methyl-furan-2-yl)-phenyl]-amide], the pIC50 was under 4.30.

`COc1ccc2c(c1)CCc1c(C(=O)N3CCc4ccccc4C3)noc1-2` [3,4-dihydro-1H-isoquinolin-2-yl-(7-methoxy-4,5-dihydrobenz[g]indoxazen-3-yl)methanone] gave a pIC50 of under 4.30.

Molecule `Cc1cccc(-n2nnc(C(=O)Nc3ccc(F)cc3)c2N)c1` [5-amino-N-(4-fluorophenyl)-1-(3-methylphenyl)-1H-1,2,3-triazole-4-carboxamide] showed a pIC50 of under 4.30.

`CCN1C(=O)c2ccc(-c3nc4ccccc4c(=O)o3)cc2C1=O` [2-ethyl-5-(4-keto-3,1-benzoxazin-2-yl)isoindoline-1,3-quinone] had a pIC50 of under 4.30.

Consider `CCSc1ccccc1C(=O)n1nnc2ccccc21`, for which the pIC50 was 5.01.

Take `CC(C)C(CC(=O)N1CCCCC1)C1CCOC(C)(C)C1` (centres undefined) [3-(2,2-dimethyl-4-oxanyl)-4-methyl-1-(1-piperidinyl)-1-pentanone]: the pIC50 was under 4.30.

Take `Cc1ccccc1Cn1nc(C)c(NC(=O)c2noc3c2CCc2ccccc2-3)c1C` [MLS000116424]: the pIC50 is 5.19.

`COc1ccc(S(=O)(=O)n2nc(OC(=O)c3cccs3)cc2N)cc1` [2-thiophenecarboxylic acid [5-amino-1-(4-methoxyphenyl)sulfonyl-3-pyrazolyl] ester]: the pIC50 is 5.60.

`COc1ccc(CNC(=O)c2cc(-c3ccc(OC)c(OC)c3)on2)cc1` [5-(3,4-dimethoxyphenyl)-N-(4-methoxybenzyl)isoxazole-3-carboxamide] had a pIC50 of under 4.30.

On to `COC(=O)c1ccccc1NC(=O)c1cc2sccc2n1C` [2-[(4-Methyl-4H-thieno[3,2-b]pyrrole-5-carbonyl)-amino]-benzoic acid methyl ester], for which the pIC50 is 4.52.

`COc1ccc2c(c1)CCc1c(C(=O)NCc3ccco3)noc1-2` [MLS000087436] gave a pIC50 of 5.80.

`Cc1cc(NC(=O)c2noc3c2CCc2ccccc2-3)n(-c2ccccc2)n1` [MLS000116423] had a pIC50 of under 4.30.

`CC(C)(C)OC(=O)N[C@@H](Cc1ccccc1)c1nnc(S(=O)(=O)Cc2cccc(F)c2)o1` [tert-butyl N-[(1S)-1-[5-[(3-fluorophenyl)methylsulfonyl]-1,3,4-oxadiazol-2-yl]-2-phenylethyl]carbamate] showed a pIC50 of 5.57.

Molecule `Cc1ccc(NC(=O)Cc2nn(C)c(=O)c3ccccc23)cc1F` [MLS000047015] showed a pIC50 of under 4.30.

Turning to `COc1ccc(S(=O)(=O)n2nc(OC(=O)c3ccccc3)cc2N)cc1` [Benzoic acid 5-amino-1-(4-methoxy-benzenesulfonyl)-1H-pyrazol-3-yl ester], the pIC50 is 4.68.

On to `O=C(NCCN1CCOCC1)c1noc2c1CCc1ccccc1-2` [MLS000087427], for which the pIC50 is 5.27.

In the case of `O=C(CCSc1nccn1Cc1ccccc1)N1CCOCC1` [1-(4-morpholinyl)-3-[[1-(phenylmethyl)-2-imidazolyl]thio]-1-propanone], the pIC50 was under 4.30.

Take `O=C(c1csc2c1CCCC2)n1cccn1` [1-(4,5,6,7-tetrahydro-1-benzothien-3-ylcarbonyl)-1H-pyrazole]: the pIC50 is 5.44.

`O=C(NCc1cccs1)c1cc(-c2cccs2)on1` [5-thien-2-yl-N-(thien-2-ylmethyl)isoxazole-3-carboxamide] showed a pIC50 of 4.82.

Take `COc1ccccc1-c1cc(C(=O)Nc2cccnc2)no1` [5-(2-methoxyphenyl)-N-(3-pyridinyl)-3-isoxazolecarboxamide]: the pIC50 is 4.36.

Molecule `O=C(c1noc2c1CCc1ccccc1-2)N1CCOCC1` [3-(morpholin-4-ylcarbonyl)-4,5-dihydronaphtho[2,1-d]isoxazole] gave a pIC50 of under 4.30.

Consider `COc1ccc2c(c1)CCc1c(C(=O)NCCCn3ccnc3)noc1-2` [MLS000087439], for which the negative logarithm of the IC50 (pIC50) is 5.38.

The molecule `CCCC(=O)Nc1ccc(C(=O)n2nnc3ccccc32)cc1` [N-[4-(1H-1,2,3-benzotriazol-1-ylcarbonyl)phenyl]butanamide] showed a pIC50 of 6.03.

The molecule `Nc1cc(OC(=O)c2cccs2)nn1S(=O)(=O)c1ccccc1` [SMR000021562] gave a pIC50 of 5.49.

The molecule `COc1ccc2c(c1)CCc1c(C(=O)Nc3ccn(Cc4ccc(C)cc4)n3)noc1-2` [7-methoxy-N-[1-(4-methylbenzyl)-1H-pyrazol-3-yl]-4,5-dihydronaphtho[2,1-d]isoxazole-3-carboxamide] had a pIC50 of 5.54.

In turn, `COCCNC(=O)c1noc2c1CCc1cc(OC)ccc1-2` [7-methoxy-N-(2-methoxyethyl)-4,5-dihydrobenz[g]indoxazene-3-carboxamide] had a pIC50 of 5.36.

`CC(=O)Nc1cccc(-c2nc3ccccc3c(=O)o2)c1` [MLS000061720] showed a pIC50 of 5.66.

For the molecule `Cc1cc(NC(=O)c2noc3c2CCc2ccccc2-3)no1` [MLS000116422], the pIC50 was 5.37.

The molecule `CSc1nc(-c2ccco2)nn1C(=O)c1ccco1` [2-furanyl-[3-(2-furanyl)-5-(methylthio)-1,2,4-triazol-1-yl]methanone] had a pIC50 of 4.93.

Molecule `COc1ccc2c(c1)CCc1c(C(=O)NC3CCCCC3)noc1-2` [MLS000087437] had a pIC50 of 6.20.

The molecule `COc1cc2nc(-c3cccs3)oc(=O)c2cc1OC` [6,7-dimethoxy-2-(2-thienyl)-3,1-benzoxazin-4-one] showed a pIC50 of under 4.30.

For the molecule `O=C(c1csc2ccccc12)n1cccn1` [MLS000065687], the pIC50 is 5.36.

For the molecule `CC(C)[C@H](NC(=O)OC(C)(C)C)c1nnc(S(=O)(=O)Cc2c(F)cccc2Cl)o1` [SMR000044502], the pIC50 is 5.03.

Consider `COc1ccc(C(=O)n2cnc(N)n2)cc1` [(3-amino-1,2,4-triazol-1-yl)-(4-methoxyphenyl)methanone], for which the pIC50 is 5.88.

On to `COc1ccc2c(c1)CCc1c(C(=O)NCc3cccnc3)noc1-2` [7-methoxy-N-(3-pyridinylmethyl)-4,5-dihydrobenzo[g][1,2]benzoxazole-3-carboxamide], for which the pIC50 was 5.86.
